Reference: US20140271470A1, “TARGETED THERANOSTICS FOR METASTATIC PROSTATE CANCER” (priority 2013, published 2014)

Tests used:
[1] = target: T1, neurotensin receptor 1 (NTR1) (Homo sapiens, UniProt P30989); details: combined with radiation; cited from earlier work
T1 construct: NTR1, which is highly expressed in prostate cancer cells but not in normal prostate epithelial cells; endogenous in cells; PC-3M for the xenograft

[2] = test system: PC-3M orthotopic human tumor xenografts; details: combined with radiation; cited from earlier work
NF-κB = details: cited from earlier work
[3] = test system: human C4-2 prostate cancer xenografts; assay: Tumor volume growth of C4-2 xenografts treated with SIPP preparations; assay type: in vivo, nude mice; details: tumor volume growth curves
From the text: Tumor volume growth curves for nude mice bearing human C4-2 prostate cancer xenografts treated with various preparations of SIPPs. (A) Black squares, no treatment controls.

T1 sequence (P30989 whole entry): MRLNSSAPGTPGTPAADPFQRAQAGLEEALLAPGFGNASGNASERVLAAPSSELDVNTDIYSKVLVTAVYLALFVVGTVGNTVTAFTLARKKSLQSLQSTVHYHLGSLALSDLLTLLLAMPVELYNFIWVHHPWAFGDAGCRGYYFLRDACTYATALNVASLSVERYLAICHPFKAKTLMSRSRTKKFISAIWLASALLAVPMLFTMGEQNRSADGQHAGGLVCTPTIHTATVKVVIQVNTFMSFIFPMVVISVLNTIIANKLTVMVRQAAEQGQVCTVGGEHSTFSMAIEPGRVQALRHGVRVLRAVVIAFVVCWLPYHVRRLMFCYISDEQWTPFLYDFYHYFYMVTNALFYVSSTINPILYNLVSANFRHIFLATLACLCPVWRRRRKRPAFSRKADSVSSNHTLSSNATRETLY

In the case of COc1cccc(OC)c1-c1cc(C(=O)NC2(C(=O)O)C3CC4CC(C3)CC2C4)nn1-c1ccnc2cc(Cl)ccc12 (centres unmarked) [SR48692], the apoptotic cell death [1] is listed as “increasing apoptotic cell death”, the clonogenic survival [1] is listed as “decreasing clonogenic survival” and the “radiosensitization of prostate cancer cells” value [1] is listed as “sensitized prostate cancer cells in a dose- and time-dependent manner”. The radiosensitization of xenografts [2] was “efficiently radiosensitizedn” and the tumor burden [2] was “significantly reduced tumor burden”.
For C[C@H]1O[C@@H](O[C@H]2[C@@H](O)C[C@H](O[C@H]3[C@@H](O)C[C@H](O[C@H]4CC[C@@]5(C)[C@H](CC[C@@H]6[C@@H]5CC[C@]5(C)[C@@H](C7=CC(=O)OC7)CC[C@]65O)C4)O[C@@H]3C)O[C@@H]2C)C[C@H](O)[C@@H]1O [digitoxin], the NF-κB inhibition (NF-κB) is listed as “potent inhibitors of NF-κB”.
For CC(=O)O[C@H]1C(=O)[C@@]2(C)[C@H]([C@H](OC(=O)c3ccccc3)[C@]3(O)C[C@H](OC(=O)[C@H](O)[C@@H](NC(=O)c4ccccc4)c4ccccc4)C(C)=C1C3(C)C)[C@]1(OC(C)=O)CO[C@@H]1C[C@@H]2O [Paclitaxel, paclitaxel], the “effect on tumor growth” value [3] was “effective”.
In the case of C[C@H]1O[C@@H](O[C@H]2[C@@H](O)C[C@H](O[C@H]3[C@@H](O)C[C@H](O[C@H]4CC[C@@]5(C)[C@H](CC[C@@H]6[C@@H]5C[C@@H](O)[C@]5(C)[C@@H](C7=CC(=O)OC7)CC[C@]65O)C4)O[C@@H]3C)O[C@@H]2C)C[C@H](O)[C@@H]1O [digoxin], the NF-κB inhibition (NF-κB) is given as “potent inhibitors of NF-κB”.
